Reference: patent EP0019589A1, “Tripeptide derivatives and their use in a process for determining enzymes” (Pentapharm A.G., priority 1979, dated 1980)
Non-standard residues stand in square brackets, D forms with d. Residues, ends and D or L forms follow the SMILES beside them. *: point of attachment. Cha = N[C@@H](CC1CCCCC1)C(=O)O; dCha = N[C@H](CC1CCCCC1)C(=O)O; dChg = N[C@@H](C(=O)O)C1CCCCC1; dPhg = N[C@@H](C(=O)O)c1ccccc1; pNA = O=[N+]([O-])c1ccc(N*)cc1; Chg = N[C@H](C(=O)O)C1CCCCC1

Tests used:
Type in all cases: biochemical
Urinkallikrein = target: T1, Urinkallikrein (Homo sapiens, UniProt P06870); experiment: Cleavage of chromogenic substrate by urinary kallikrein in human urine; conditions: 1 ml human urine (pooled morning urine of healthy persons), per min; Substratkonzentration 2 x 10^-4 molar
T1 construct: 1 ml Urin und 1 ml TRIS-Imidazol-Puffer mit pH 7,9; from tissue; host or cells: human urine
T1 sequence (P06870 25-262): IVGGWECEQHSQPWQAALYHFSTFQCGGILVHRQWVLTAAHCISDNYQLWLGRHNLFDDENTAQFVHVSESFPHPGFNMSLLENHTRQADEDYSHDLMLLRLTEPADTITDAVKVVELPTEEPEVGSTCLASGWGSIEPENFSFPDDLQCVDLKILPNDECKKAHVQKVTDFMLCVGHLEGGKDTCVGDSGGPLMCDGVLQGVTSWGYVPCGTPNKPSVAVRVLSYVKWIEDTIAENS
Procedure: 1. Bestimmung von Urinkallikrein.
1 ml Urin und 1 ml TRIS-Imidazol-Puffer mit pH 7,9 und Ionenstärke 1,0 werden 5 Min. bei 37°C inkubiert undcänn zentrifugiert, um Sedimente zu entfernen.
In einer-Plastikküvette werden 1,4 ml dest. H20 von 37°C und 0,4 ml des Zentrifugats gut gemischt. Zu dieser Mischung gibt man 0,2 ml einer 2 x 10^-3 molaren wässrigen Substratlösung und durchmischt die Komponenten schnell. Dieses Gemisch wird genau 15 Min. bei 37°C inkubiert. Dann wird dem Reaktionsgemisch 0,2 ml Eisessig zugemischt, um die Enzymreaktion zu unterbrechen. Zur Farbmessung verwendet man eine Vergleichsprobe (Blindprobe), die aus den gleichen Komponenten zusammengesetzt ist, wobei jedoch der Eisessig vor Zugabe des Substrates zugesetzt wird, um die Enzymreaktion zu verhindern. Dann wird bei 405 nm photometrisch oder spektrophotometrisch die Menge der gebildeten farbigen Verbindung RNH 2 aus der Differenz zwischen der Blindprobe und der zu bestimmenden Probe ermittelt. Aus dem ermittelten Wert wird die Urinkallikreinaktivität im Urin nach der folgenden Formel berechnet: [formula] • Δ OD = Zunahme der optischen Dichte bei 405 nm während 15 Min. • V = Totalvolumen des Bestimmungsansatzes = 2,2 ml • 1000 = Umrechnungsfaktor zur Umwandlung von U in mU • F = Verdünnungsfaktor des Urins (2) • v = Volumen der Probe = 0,4 ml • ε = Extinktionskoeffizient dividiert durch 1000 = 10,4
Bei der oben beschriebenen Bestimmungsmethode misst man somit die Summe der Aktivitäten von Urinkallikrein und Urokinase. Um die genaue Urinkallikreinaktivität zu erhalten, muss man die Urokinaseaktivität abziehen, welche dadurch bestimmt werden kann, dass man in einem Vergleichsversuch durch Zugabe von 0,075 Einheiten Trypsininhibitor (Trypsininhibitor aus Rinderlunge) pro ml Puffer die Urinkallikreinaktivität vollständig hemmt und nur die Urokinaseaktivität misst.
(§1) Bei der Messung des durch die enzymatische Hydrolyse des Substrates gebildeten Spaltproduktes RrNH2 geht man von der Voraussetzung aus, dass das Spaltprodukt ein UV-Spektrum besitzt, das von demjenigen des Substrates verschieden und in Richtung höherer Wellenlängen verschoben ist. Die Absorption des Substrates bei 405 nm ist praktisch Null. p-Nitroanilin als Spaltprodukt weist ein Absorptionsmaximum bei 380 nm und einen molaren Extinktionskoeffizienten von 13'200 auf. Bei 405 nm ist der Extinktionskoeffizient nur wenig niedriger, d.h. […] Der Grad der enzymatischen Hydrolyse des Substrates, welcher der Menge des abgespaltenen p-Nitroanilins proportional ist, lässt sich durch spektrophotometrische Messung bei 405 nm bestimmen. Auch bei Anwesenheit eines Ueberschusses an Substrat wird die Messung bei 405 nm nicht gestört.
(§2) Bei den Substraten, die als chromogene Gruppe eine 2-Naphthylamino-, 4-Methoxy-2-naphthylamino-, 4-Methyl-cumaryl-(7)-amino- oder 1,3-Di(methoxycarbonyl)-phenyl-(5)-amino-Gruppe enthalten, wird die Menge des Spaltproduktes R-NH2 durch Fluoreszenzspektrophotometrie gemessen. In einem aus Enzym, Puffer und Substrat bestehenden Testsystem misst man kontinuierlich das energieärmere emittierte Licht bei 400-470 nm, nachdem man das gebildete fluoreszierende Spaltprodukt mit energiereicherem Licht erregt hat. Die pro Zeiteinheit gebildete Menge Spaltprodukt ist ein Mass für die vorhandene Enzymaktivität. 1 µMol Spaltprodukt pro Minute entspricht definitionsgemäss 1 Enzym-Einheit, bezogen auf ein gegebenes Substrat.

Humanplasmin = target: T2, Humanplasmin (Homo sapiens, UniProt P00747); experiment: Cleavage of chromogenic substrate by human plasmin; conditions: 1 CU-Einheit human plasmin, per min; Substratkonzentration 2 x 10^-4 molar
T2 construct: da bei der Aktivierung aus 1 Molekül Plasminogen 1 Molekül Plasmin entsteht
T2 sequence (P00747 581-810 limits assumed): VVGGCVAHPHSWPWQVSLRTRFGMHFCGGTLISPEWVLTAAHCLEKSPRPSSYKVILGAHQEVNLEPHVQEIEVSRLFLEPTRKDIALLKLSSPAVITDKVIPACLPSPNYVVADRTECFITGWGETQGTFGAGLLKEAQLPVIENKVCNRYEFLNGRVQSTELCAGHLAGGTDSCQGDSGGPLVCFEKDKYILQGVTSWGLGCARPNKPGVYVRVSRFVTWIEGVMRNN
T2 sequence (P00747 97-580 partner limits assumed): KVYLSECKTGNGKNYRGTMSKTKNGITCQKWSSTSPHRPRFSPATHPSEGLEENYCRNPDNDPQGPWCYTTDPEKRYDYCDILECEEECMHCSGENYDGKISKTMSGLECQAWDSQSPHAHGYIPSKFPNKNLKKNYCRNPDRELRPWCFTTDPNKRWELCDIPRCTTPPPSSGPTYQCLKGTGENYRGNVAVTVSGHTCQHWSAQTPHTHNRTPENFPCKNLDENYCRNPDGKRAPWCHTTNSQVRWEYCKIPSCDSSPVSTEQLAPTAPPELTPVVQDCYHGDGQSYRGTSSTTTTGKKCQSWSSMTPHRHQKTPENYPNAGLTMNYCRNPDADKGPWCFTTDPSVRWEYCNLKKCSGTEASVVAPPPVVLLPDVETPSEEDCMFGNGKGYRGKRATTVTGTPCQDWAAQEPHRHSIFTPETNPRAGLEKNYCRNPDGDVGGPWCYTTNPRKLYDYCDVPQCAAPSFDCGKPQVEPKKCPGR
Procedure: 3. Bestimmung von Plasmin:
Man mischt 1,7 ml TRIS-Imidazol-Puffer (pH 7,5, Ionenstärke 0,2) bei 37°C mit 0,1 ml einer Lösung von Plasmin in 25%igem Glycerin und inkubiert die Mischung während 1 Min. bei 37°C. Dann gibt man der Mischung 0,2 ml einer wässrigen 2 x 10^-3 molaren Substxatlösung von 37°C zu und durchmischt das Ganze schnell. Man ermittelt dann kontinuierlich die pro Zeiteinheit aus dem Substrat freigesetzte Menge des Spaltproduktes R-NH2. Aus dem pro Min. ermittelten Wert berechnet man dann die Plasminaktivität pro ml Probe in mU nach der folgenden Formel: [formula] • ΔE = pro Min. freigesetzte Menge des Spaltproduktes • V = Totalvolumen des Testansatzes • v = Volumen der Probe • = Extinktionskoeffizient dividiert durch 1000
as §1, §2

[1] = target: T3, Submandibularis-Kallikrein (Homo sapiens, UniProt P06870); experiment: Cleavage of chromogenic substrate by submandibular (glandular) kallikrein in human sputum; conditions: 1 ml human sputum, per min; Substratkonzentration 2 x 10^-4 molar
T3 construct: Man mischt 0,5 ml Sputum mit 2 ml TRIS-Imidazol-Puffer; from tissue; host or cells: human sputum
T3 sequence (P06870 25-262): as the sequence (P06870 25-262) above
Procedure: 2. Bestimmung des Glandulärkallikreins im Sputum: • Man mischt 0,5 ml Sputum mit 2 ml TRIS-Imidazol-Puffer (Ionenstärke 1,0) und präinkubiert die Mischung 5 Min. bei 37°C. Das Inkubat wird zentrifugiert. In eine Testküvette wird 1,5 ml dest. H2O von 37°C vorgelegt und mit 0,25 ml des Zentrifugats versetzt. Die Komponenten werden gut gemischt. Dann wird 0,2 ml 2 x 10-^3 molare wässrige Substratlösung zugesetzt und gemischt. Dann wird bei 405 nm die Extinktions- änderung kontinuierlich mittels eines Schreibers während 5-10 Min. verfolgt. Aus dem ermittelten Δ OD pro Min. wird mittels der nachstehenden Formel die Kallikreinaktivität pro ml Sputum in mU errechnet: [formula] • F = 5 • V = 1,95 • v = 0,25 • 1 U (Einheit) = Enzymmenge, die während 1 Min. 1 µMol Substrat unter optimalen oder sonst festgelegten Bedingungen in Bezug auf pH, Ionenstärke, Temperatur und Substratkonzentration zu spalten vermag
as §1, with “gestört. […]” for “gestört.”

Humanthrombin = target: T4, Humanthrombin (Homo sapiens, UniProt P00734); experiment: Cleavage of chromogenic substrate by human NIH thrombin; conditions: 1 NIH-Einheit human thrombin, per min; Substratkonzentration 2 x 10^-4 molar
T4 construct: Humanplasmin und hu-manem NIH-Thrombin
Source text: as §1, §2

SMILES	Menge des durch 1 ml Humanurin pro Min. freigesetzten Spaltproduktes R-NH2 in Nanomol (Urinkallikrein) (Urinkallikrein)	Menge des durch 1 CU-Einheit Humanplasmin pro Min. freigesetzten Spaltproduktes R-NH2 in Nanomol (Humanplasmin) (Humanplasmin) [Nanomol]	Menge des durch 1 ml Humansputum pro Min. freigesetzten Spaltproduktes R-NH2 in Nanomol (Submandibularis-Kallikrein) [1]	Menge des durch 1 NIH-Einheit Thrombin pro Min. freigesetzten Spaltproduktes R-NH2 in Nanomol (Humanthrombin) (Humanthrombin)
N=C(N)NCCC[C@H](NC(=O)[C@H](CC1CCCCC1)NC(=O)[C@H]1CCCN1)C(=O)Nc1ccc([N+](=O)[O-])cc1 [Beispiel 22, 2HBr.H-D-Pro-CHA-Arg-pNA] (H-[dP]-[Cha]-Arg-pNA)	0,63 Nanomol	250	11,7 Nanomol	0,75 Nanomol
N=C(N)NCCC[C@H](NC(=O)[C@@H](NC(=O)[C@H]1CCCN1)C1CCCCC1)C(=O)Nc1ccc([N+](=O)[O-])cc1 [Beispiel 24, 2HBr.H-D-Pro-CHG-Arg-pNA] (H-[dP]-[Chg]-Arg-pNA)	1,87 Nanomol	10	5,7 Nanomol	0,29 Nanomol
N=C(N)NCCC[C@H](NC(=O)[C@H](CC1CCC(O)CC1)NC(=O)[C@H]1CCCN1)C(=O)Nc1ccc([N+](=O)[O-])cc1 (stereo partly drawn) [Beispiel 25, 2HBr.H-D-Pro-CHT-Arg-pNA]	0,52 Nanomol	390	10,7 Nanomol	1,52 Nanomol
CC(C)C[C@H](NC(=O)[C@H](N)c1ccccc1)C(=O)N[C@@H](CCCNC(=N)N)C(=O)Nc1ccc([N+](=O)[O-])cc1 [Beispiel 26, 2HBr.H-D-Ph'Gly-Leu-Arg-pNA] (H-[dPhg]-Leu-Arg-pNA)	0,19 Nanomol	194	8,3 Nanomol	0,8 Nanomol
N=C(N)NCCC[C@H](NC(=O)[C@@H]1CCCN1C(=O)[C@H](N)C1CCCCC1)C(=O)Nc1ccc([N+](=O)[O-])cc1 [Beispiel 27, 2HBr.H-D-CHG-Pro-Arg-pNA] (H-[dChg]-Pro-Arg-pNA)	0,33 Nanomol	511	12,9 Nanomol	96,3 Nanomol
N=C(N)NCCC[C@H](NC(=O)[C@@H]1CCCCN1C(=O)[C@H](N)CC1CCC(O)CC1)C(=O)Nc1ccc([N+](=O)[O-])cc1 (stereo partly drawn) [Beispiel 28, 2HBr.H-D-CHT-Pip-Arg-pNA]	0 Nanomol	122	9,9 Nanomol	80,4 Nanomol
NCCCC[C@H](NC(=O)[C@@H]1CCCN1C(=O)[C@H](N)CC1CCCCC1)C(=O)Nc1ccc([N+](=O)[O-])cc1 [Beispiel 29, 2AcOH.H-D-CHA-Pro-Lys-pNA] (H-[dCha]-Pro-Lys-pNA)	0,71 Nanomol	639	4,4 Nanomol	4,54 Nanomol
